According to patent publication US20210137119A1 (priority 2017, published 2021):
Read-outs that look alike come from different tables or passages of the source.

Test system: Fusarium graminearum in wheat
Format: in vivo
[1] = Trial 1, dosage mL/Ha: benzovindiflupyr 200, phenamacril 1500, combination 200 + 1500
[2] = Trial 2, dosage mL/Ha: benzovindiflupyr 200, phenamacril 1500, combination 200 + 1500
[3] = Trial 3, dosage mL/Ha: benzovindiflupyr 200, phenamacril 1500, combination 150 + 1250
[4] = Trial 4, dosage mL/Ha: benzovindiflupyr 200, phenamacril 1500, combination 150 + 1250

Row | SMILES | % disease control of Fusarium graminearum in wheat at 3DAA, Actual [1] | % disease control of Fusarium graminearum in wheat at 7DAA, Actual [2] | % disease control of Fusarium graminearum in wheat at 3DAA, Actual [3] | % disease control of Fusarium graminearum in wheat at 7DAA, Actual [4]
1 | CCOC(=O)C(C#N)=C(N)c1ccccc1 [Phenamacril, ethyl (2EZ)-3-amino-2-cyano-3-phenylacrylate] | 83.5% | 83.5% | 83.5% | 83.5%
2 | Cn1cc(C(=O)Nc2cccc3c2[C@@H]2CC[C@H]3C2=C(Cl)Cl)c(C(F)F)n1 (racemic) [Benzovindiflupyr, N-[(1RS,4SR)-9-(dichloromethylene)-1,2,3,4-tetrahydro-1,4-methanonaphthalen-5-yl]-3-(difluoromethyl)-1-methylpyrazole-4-carboxamide] | 27% | 27% | 27% | 27%
